This is an account of results in patent publication US8546343B2, “Aminoglycoside antibiotics targeting bacterial 16S ribosomal RNA” (Eidgenoessische Technische Hochschule Zurich, priority 2007, dated 2013).

In brackets after ≈: the same amount, converted by molar mass. Bounds are passed on as bounds.

Assay [1] has as its system M. smegmatis ΔrrnB (bacterial ribosomes). Description: MIC, recombinant M. smegmatis with bacterial (wild-type) ribosomes. Type of assay: cell-based, Mycobacterium smegmatis. Particulars: 72 h at 37° C. The source says: (§1) The strain used for introduction/selection of mutational alterations was a genetically modified derivative of Mycobacterium smegmatis carrying a single functional chromosomal rRNA operon (Sander et al. Mol. Microbiol. 1996, 22: 841-848). This strain, termed M. smegmatis rrn^−, allowed for the selection of mutational rRNA gene alterations using a plasmid carrying the rRNA gene with the respective mutational alteration.)
(§2) The rRNA gene carried on the plasmid encodes either the complete rRNA operon (Prammananan et al. Antimicrob. Agents Chemother. 1999, 43: 447-453) or a non-functional rRNA gene fragment of approximately 1.0 kb (Pfister et al. Antimicrob. Agents Chemother. 2003, 47: 1496-1502). PCR-mutagenesis in vitro was used to generate the mutagenized rRNA gene fragment. In the case of a partial rRNA gene fragment the mutagenized rRNA gene fragment was cloned into vectors pMV261 or pMV361 (Sander et al. Mol. Microbiol. 2002, 46: 1295-1304; Pfister et al. Antimicrob. Agents Chemother. 2003, 47: 1496-1502) to result in vectors carrying a partial rRNA gene fragment of approximately 1.0 kb with the mutational alteration introduced. In the case of plasmids carrying the complete rRNA operon the mutagenized rRNA gene fragment obtained by PCR was cloned into vectors pMV361 rRNA or pMV261 rRNA using appropriate restriction sites (Prammananan et al. Antimicrob. Agents Chemother. 1999, 43: 447-453). Vectors pMV361 rRNA and pMV261 rRNA carried a complete copy of the rRNA operon from M. smegmatis (Sander et al. Mol. Microbiol. 1997, 26: 469-480). Introduction of mutations into the plasmid encoded rRNA was confirmed by sequencing.
(§3) The single rRNA allelic derivative of M. smegmatis, i.e. M. smegmatis rrn, was used for transformation of the plasmids. The strain was made electro-competent and transformed according to standard techniques and as described previously (Sander et al. Mol. Microbiol. 1997, 26: 469-484). Following primary selection, the plasmid-encoded mutational rRNA gene alteration was transferred into the single chromosomal rRNA operon by means of RecA-mediated homologous recombination (Prammananan at al. Antimicrob. Agents Chemother. 1999, 43: 447-453). Introduction of the mutational rRNA gene alteration into the single functional chromosomal rRNA operon by gene conversion was confirmed by sequence determination.
(§4) Ribosomal drug susceptibility was studied by determining the minimal inhibitory concentrations, as described in detail in Pfister et al. 2003 and 2005 (see above).
(§5) The recombinants carrying the respective mutational alterations in the functional rRNA operon were colony-purified and subjected to determinations of minimal inhibitory concentrations (MIC) to determine ribosomal drug susceptibility. Cultures from single colonies were grown in LB medium supplemented with 0.05% Tween 80 and used for MIC tests in a microtiter plate format. Starting cultures contained 200 μl of bacterial cells at an optical density of 0.025 at 600 nm, and the respective drug was added in twofold series of dilution.
(§6) Key nucleotides which distinguish the prokaryotic from the eukaryotic decoding site are 16S rRNA positions 1408 (bacterial ribosome: A, eukaryotic cytosolic ribosomes: G) and 1491 (bacterial ribosomes: G, eukaryotic cytosolic ribosomes: A, eukaryotic mitochondrial ribosome: C).

The subject of assay [2] is M. smegmatis ΔrrnB 1408G (16S rRNA position 1408 G, eukaryotic cytosolic ribosomes). Briefly: MIC, recombinant M. smegmatis with mutant ribosomes 1408G. Particulars: M. smegmatis ΔrrnB 1408G mutant ribosomes; 72 h at 37° C. In kind it is cell-based, Mycobacterium smegmatis.
Excerpt: as §1, §2, §3, §4, §5, §6

For assay [3], the system named is M. smegmatis ΔrrnB 1491A (16S rRNA position 1491 A, eukaryotic cytosolic ribosomes). Briefly: MIC, recombinant M. smegmatis with mutant ribosomes 1491A. Type of assay: cell-based, Mycobacterium smegmatis. Particulars: M. smegmatis ΔrrnB 1491A mutant ribosomes; 72 h at 37° C.
Excerpt: as §1, §2, §3, §4, §5, §6

For assay [4], the system named is M. smegmatis ΔrrnB 1491C (16S rRNA position 1491 C, eukaryotic mitochondrial ribosome). Briefly: MIC, recombinant M. smegmatis with mutant ribosomes 1491C. The conditions noted are these: M. smegmatis ΔrrnB 1491C mutant ribosomes; 72 h at 37° C. Type of assay: cell-based, Mycobacterium smegmatis.
Excerpt: as §1, §2, §3, §4, §5, §6

In assay [5] the test system is AG011 Staph. aureus clinical isolate. Description: Standard MIC assay, AG011. In kind it is cell-based, Staphylococcus aureus. As for the experimental part: (§7) Selected compounds of the present invention were tested for antibiotic susceptibility using clinical isolates of Staphylococci, Enterococci and Escherichia coli as well as strains carrying defined resistance determinants and compared to well known antibiotics of the state of the art. Drug susceptibility was determined in standard MIC assays, i.e. by determination of the minimal drug concentration required to inhibit bacterial growth in vitro.

For assay [6], the system named is AG013 Staph. epi. clinical isolate. Briefly: Standard MIC assay, AG013. In kind it is cell-based, Staphylococcus epidermidis. As to the method: as §7
The subject of assay [7] is AG014 Staph. epi. clinical isolate. Description: Standard MIC assay, AG014. In kind it is cell-based, Staphylococcus epidermidis. As to the method: as §7
In the next assay the test system is AG016 S. aureus BM3002. Briefly: Standard MIC assay, AG016. Type of assay: cell-based, Staphylococcus aureus. As for the experimental part:
as §7

Assay [8] relates to AG015 S. aureus BM3002 (ANT4′). Description: Standard MIC assay, AG015. In kind it is cell-based, Staphylococcus aureus. As to the method: as §7
The test system of the next assay is AG017 E. faecalis JH2-2. Briefly: Standard MIC assay, AG017. Type of assay: cell-based, Enterococcus faecalis. As for the experimental part: as §7
For assay [9], the system named is AG019 E. faecalis JH2-2 (APH2″ AAC6′). Description: Standard MIC assay, AG019. In kind it is cell-based, Enterococcus faecalis. As to the method:
as §7

On to `NC[C@@H]1O[C@H](O[C@H]2[C@@H](O)[C@H](O[C@@H]3[C@@H](O)[C@H](N)C[C@H](N)[C@H]3O[C@H]3O[C@@H]4CO[C@@H](Cc5ccccc5)O[C@H]4[C@H](O)[C@H]3N)O[C@@H]2CO)[C@H](N)[C@@H](O)[C@@H]1O` [Compound 5.24], for which the “minimal inhibitory concentrations ΔrrnB” value in assay [1] stood at 64 µg/mL. Besides, the “minimal inhibitory concentrations ΔrrnB 1408G” value in assay [2] was determined as 256 µg/mL. The “minimal inhibitory concentrations ΔrrnB 1491A” value in assay [3] was found to be 256 µg/mL. Further, the “minimal inhibitory concentrations ΔrrnB 1491C” value in assay [4] lay in the range of 128 to 256 µg/mL.
As to `NC[C@@H]1O[C@H](O[C@H]2[C@@H](O)[C@H](O[C@@H]3[C@@H](O)[C@H](N)C[C@H](N)[C@H]3O[C@H]3O[C@@H]4CO[C@@H](C5CCCCC5)O[C@H]4[C@H](O)[C@H]3N)O[C@@H]2CO)[C@H](N)[C@@H](O)[C@@H]1O` [Compound 5.27, 4′,6′-O-Cyclohexylmethylideneparomomycin], the “minimal inhibitory concentrations ΔrrnB” value in [1] was 32 to 64 µg/mL. Besides, in assay [2], the “minimal inhibitory concentrations ΔrrnB 1408G” value was greater than 512 µg/mL. Further, the “minimal inhibitory concentrations ΔrrnB 1491A” value in assay [3] is greater than 512 µg/mL. Besides, in [4], the “minimal inhibitory concentrations ΔrrnB 1491C” value was greater than 512 µg/mL.
Take `NCC1OC(OC2C(CO)OC(OC3C(O)C(N)CC(N)C3OC3OC(COCc4ccccc4)C(O)C(O)C3N)C2O)C(N)C(O)C1O` (stereo not shown) [Compound 15, 6′-O-Benzylparomomycin]: the “minimal inhibitory concentrations ΔrrnB” value in assay [1] is 32 to 64 µg/mL. The “minimal inhibitory concentrations ΔrrnB 1408G” value in assay [2] is greater than 512 µg/mL. Besides, in assay [3], the “minimal inhibitory concentrations ΔrrnB 1491A” value was greater than 512 µg/mL. The “minimal inhibitory concentrations ΔrrnB 1491C” value in [4] is greater than 512 µg/mL.
As to `NC[C@@H]1O[C@H](O[C@H]2[C@@H](O)[C@H](O[C@@H]3[C@@H](O)[C@H](N)C[C@H](N)[C@H]3O[C@H]3O[C@H](CO)[C@@H](OCc4ccc(C(F)(F)F)cc4)[C@H](O)[C@H]3N)O[C@@H]2CO)[C@H](N)[C@@H](O)[C@@H]1O` [Compound 19b, 4′-p-(trifluoromethyl)benzylparomomycin], the “minimal inhibitory concentrations ΔrrnB” value in [1] stood at 8 µg/mL. The “minimal inhibitory concentrations ΔrrnB 1408G” value in assay [2] was greater than 512 µg/mL. Also, the “minimal inhibitory concentrations ΔrrnB 1491A” value in assay [3] was greater than 512 µg/mL. For the same compound, in [4], the “minimal inhibitory concentrations ΔrrnB 1491C” value was “≧512 μg/ml”.
With `NC[C@@H]1O[C@H](O[C@H]2[C@@H](O)[C@H](O[C@@H]3[C@@H](O)[C@H](N)C[C@H](N)[C@H]3O[C@H]3O[C@H](CO)[C@@H](OCOCc4ccccc4)[C@H](O)[C@H]3N)O[C@@H]2CO)[C@H](N)[C@@H](O)[C@@H]1O` [Compound 19d, 4′-Benzyloxymethylparomomycin], in assay [1], the “minimal inhibitory concentrations ΔrrnB” value came out at 16 µg/mL. In addition, the “minimal inhibitory concentrations ΔrrnB 1408G” value in [2] is greater than 512 µg/mL. Further, the “minimal inhibitory concentrations ΔrrnB 1491A” value in assay [3] was greater than 512 µg/mL. The “minimal inhibitory concentrations ΔrrnB 1491C” value in assay [4] is greater than 512 µg/mL.
Regarding `COc1ccc(COC2C(CO)OC(OC3C(N)CC(N)C(O)C3OC3OC(CO)C(OC4OC(CN)C(O)C(O)C4N)C3O)C(N)C2O)cc1` (stereo not shown) [Compound 19e, 4′-p-Methoxybenzylparomomycin], in [1], the “minimal inhibitory concentrations ΔrrnB” value came to 8 µg/mL. Moreover, in assay [2], the “minimal inhibitory concentrations ΔrrnB 1408G” value is greater than 512 µg/mL. In addition, the “minimal inhibitory concentrations ΔrrnB 1491A” value in assay [3] is greater than 512 µg/mL. Further, the “minimal inhibitory concentrations ΔrrnB 1491C” value in assay [4] was greater than 512 µg/mL.
On to `NC[C@@H]1O[C@H](O[C@H]2[C@@H](O)[C@H](O[C@@H]3[C@@H](O)[C@H](N)C[C@H](N)[C@H]3O[C@H]3O[C@H](CN)[C@@H](O)[C@H](O)[C@H]3N)O[C@@H]2CO)[C@H](N)[C@@H](O)[C@@H]1O` [Neomycin B, reference compound], for which the “minimal inhibitory concentrations ΔrrnB” value in [1] is 0.5 to 1 µg/mL. The “minimal inhibitory concentrations ΔrrnB 1408G” value in assay [2] was greater than 512 µg/mL. Also, in assay [3], the “minimal inhibitory concentrations ΔrrnB 1491A” value was determined as 4 µg/mL. For the same compound, in assay [4], the “minimal inhibitory concentrations ΔrrnB 1491C” value lay within 16 to 32 µg/mL.
For the compound `NC[C@@H]1O[C@H](O[C@H]2[C@@H](O)[C@H](O[C@@H]3[C@@H](O)[C@H](N)C[C@H](N)[C@H]3O[C@H]3O[C@H](CO)[C@@H](O)[C@H](O)[C@H]3N)O[C@@H]2CO)[C@H](N)[C@@H](O)[C@@H]1O` [Paromomycin, paromomycin, reference compound], the “minimal inhibitory concentrations ΔrrnB” value in assay [1] turned out to be 1 µg/mL. Moreover, the “minimal inhibitory concentrations ΔrrnB 1408G” value in assay [2] was 64 µg/mL. Also, the “minimal inhibitory concentrations ΔrrnB 1491A” value in assay [3] is 64 µg/mL. Besides, in assay [4], the “minimal inhibitory concentrations ΔrrnB 1491C” value is “≧512 μg/ml”. In addition, the MIC is 8 µg/mL (≈ 13 µM) in [5] (Staphylococcus aureus, read-out: Minimal inhibitory concentrations AG011); no less than 256 µg/mL in [6] (Staphylococcus epidermidis, read-out: Minimal inhibitory concentrations AG013); no less than 256 µg/mL in assay [7] (Staphylococcus epidermidis, read-out: Minimal inhibitory concentrations AG014); 2 to 4 µg/mL (≈ 3.25 to 6.5 µM) with AG016 S. aureus BM3002 (Staphylococcus aureus, read-out: Minimal inhibitory concentrations AG016); greater than 256 µg/mL in [8] (Staphylococcus aureus, read-out: Minimal inhibitory concentrations AG015); 128 to 256 µg/mL (≈ 208 to 416 µM) with AG017 E. faecalis JH2-2 (Enterococcus faecalis, read-out: Minimal inhibitory concentrations AG017). In addition, in [9] (Enterococcus faecalis, read-out: Minimal inhibitory concentrations AG019), the MIC is greater than 256 µg/mL.
With Neomycin [reference compound], in [5], the “Minimal inhibitory concentrations AG011” value was found to be 4 µg/mL. The “Minimal inhibitory concentrations AG013” value in assay [6] was in the range of 64 to 128 µg/mL. Further, in [7], the “Minimal inhibitory concentrations AG014” value was 32 µg/mL. The “Minimal inhibitory concentrations AG016” value in the assay on AG016 S. aureus BM3002 fell in the range of 1 to 2 µg/mL. Further, the “Minimal inhibitory concentrations AG015” value in assay [8] (S. aureus BM3002 (ANT4′)) worked out at 128 µg/mL. Also, the “Minimal inhibitory concentrations AG017” value with AG017 E. faecalis JH2-2 was 64 µg/mL. Further, in assay [9] (E. faecalis JH2-2 (APH2″ AAC6′)), the “Minimal inhibitory concentrations AG019” value was greater than 256 µg/mL.
